# Reference: patent US11077169B2, “Soy-derived bioactive peptides for use in compositions and methods for wound healing, tissue engineering, and regenerative medicine” (Temple University-Of The Commonwealth System of Higher …, priority 2015, dated 2021)
# System: HaCaT epithelial cells
# Test: wound closure in HaCaT cells with ethanol extracts and estrogen receptor antagonist
# Format: cell-based, human
smiles,measurement,setting,value
C[C@]12CC[C@@H]3c4ccc(O)cc4C[C@@H](CCCCCCCCC[S+]([O-])CCCC(F)(F)C(F)(F)F)[C@H]3[C@@H]1CC[C@@H]2O (some centres unmarked) [Fluvestrant],effect on WSsoy-induced wound closure,,did not affect
same,inhibition of SPI-induced wound closure,10 μM antagonist,significantly inhibited
